Where “and” joins values, the source holds several entries; their conditions need not be identical. Equal entries are not always repeated.
How the values were obtained:
[1] = Exposure-safety: logistic regression against model-predicted AUC0–24; type: in vivo, human; settings: for predicted incidence of all grade total bilirubin elevation: median baseline total bilirubin 6.84 μmol/L; for AUC(0-t): human, serum, oral
[2] = system: BCR-ABL transcript level; test: Exposure-efficacy: BCR-ABL ratio and MMR at 12 months by observed Cmin quartile; type: in vivo, human
[3] = human, in vivo
[4] = clinical; settings: human, serum, oral
[5] = system: OCT1; settings: cited from earlier work
[6] = system: efflux transporters (ABCB1, ABCG2); settings: CML cells; cited from earlier work
[7] = Population PK analysis, nonlinear mixed-effect modeling
[8] = population mean (standard error)

## Cc1cn(-c2cc(NC(=O)c3ccc(C)c(Nc4nccc(-c5cccnc5)n4)c3)cc(C(F)(F)F)c2)cn1 [nilotinib]
[1]; AUC0–24 16 μg·h/mL
  predicted incidence of all grade abnormalities, hemoglobin: 31.7%
  predicted incidence of all grade abnormalities, lipase: 17.4%
[1]; AUC0–24 16 μg∙h/mL
  predicted incidence of all grade total bilirubin elevation: 29.4%
[1]; AUC0–24 24 μg·h/mL
  predicted incidence of all grade abnormalities, hemoglobin: 36.4%
  predicted incidence of all grade abnormalities, lipase: 23.8%
[1]; AUC0–24 24 μg∙h/mL
  predicted incidence of all grade total bilirubin elevation: 46.5%
[1]; AUC0–24 32 μg·h/mL
  predicted incidence of all grade abnormalities, hemoglobin: 39.9%
  predicted incidence of all grade abnormalities, lipase: 29.3%
[1]; AUC0–24 32 μg∙h/mL
  predicted incidence of all grade total bilirubin elevation: 59.5%
[1]
  AUC(0-t): 25900 ng·h/mL
[1]; male, 300 mg
  AUC(0-t): 24000 ng·h/mL
[2]; Q2/3 829–1,569 ng/mL vs Q1
  MMR difference vs Q1 (95% CI): 1.7 (−10.4, 13.8)
[2]; Q4 >1,569 ng/mL vs Q1
  MMR difference vs Q1 (95% CI): 4.6 (−9.3, 18.6)
[2]; Q4 >1,569 ng/mL vs Q2/3
  MMR difference vs Q2/3 (95% CI): 2.9 (−9.0, 14.8)
[2]; average Cmin Q1 <829 ng/mL, evaluable patients n observed 96
  MMR at 12 months: 45 (46.9) n (%)
[2]; average Cmin Q2/3 829–1,569 ng/mL, evaluable patients n observed 208
  MMR at 12 months: 101 (48.6) n (%)
[2]; average Cmin Q4 >1,569 ng/mL, evaluable patients n observed 101
  MMR at 12 months: 52 (51.5) n (%)
[3]
  higher exposure in 400 mg twice-daily arm than in 300 mg twice-daily arm: 11.5%
[4]
  Vd: 58 L
  clearance: 350 mL/min
[5]
  dependence of movement into CML cells on influx transporter OCT1: independent of the influx transporter OCT1
[6]
  role of efflux transporters (ABCB1, ABCG2) in cellular retention: none of them appear to play an important role
[7]; AST increase from ULN to 1.5 × ULN
  predicted decrease in CL: 1%
[7]; AST increase from ULN to 2 × ULN
  predicted decrease in CL: 3%
[7]; estimate (standard error)
  σ1, proportional random error: 29.8 (0.917) %
  σ2, additive random error: 110 (17.4) ng/mL
[7]; final model, % (SE)
  Interindividual variability of CL: 37.6% and 37.6 (1.4) %
  Interindividual variability of V1: 79.2% and 79.2 (14.2) %
  Interindividual variability of V2: 98.9% and 98.9 (19.7) %
[7]; model without covariates
  interindividual variability of CL before addition of significant covariates: 40.0%
[7]; [8]
  D1, zero-order input duration: 9.88 (0.112) h
  V2, volume of distribution of peripheral compartment: 181 (25.4) L
[7]; population mean, fixed
  Lag, lag time for absorption: 0.67 h (fixed)
[7]; same dose level
  lower bioavailability or systemic exposure in male than female patients: approximately 10%
[7]; total bilirubin increase from ULN to 1.5 × ULN
  predicted decrease in CL: 12%
[7]; total bilirubin increase from ULN to 2 × ULN
  predicted decrease in CL: 23%
[7]; total bilirubin increase from ULN to 2.5 × ULN
  predicted decrease in CL: 32%
